Experiments:
rat EP4 receptor = rat EP4 receptor (Rattus norvegicus, UniProt P43114); assay: Evaluation test on EP4 receptor affinity in rat ([3H]PGE2 receptor binding test, membrane fraction); set-up: expressed in transfected cells; host or cells: HEK293 cells, transient transfection (Lipofectamine 2000); membrane fraction used; details: [3H]PGE2 0.3 nM, membrane fraction of rat EP4 expressing HEK293 cells
Method: A rat EP4 receptor cDNA was subcloned into an expression vector (pcDNA3.1-V5-His-topo, manufactured by Invitrogen Corporation) to prepare a rat EP4 expression vector. HEK293 cells were cultured in a collagen type I-treated 15 cm dish (manufactured by Asahi Techno Glass Co. Ltd.) to a confluence of 70%. An Opti-MEM culture medium at 1.2 mL/dish and a transfection reagent (Lipofectamine 2000, manufactured by Invitrogen Corporation) at 60 μL/dish were mixed, followed by being left to stand at room temperature for 5 minutes. Then, the rat EP4 receptor expression vector at 15 μg/dish was added thereto, followed by being left to stand at room temperature for 30 minutes. The liquid mixture of the transfection reagent was added into the dish, followed by culturing for 20 to 24 hours. The cell culture was carried out in a CO2 incubator (37° C., 5% CO2).
The culture medium was removed by suction, 10 mL of cooled PBS was added thereto per 15 cm dish, and the cells were scraped using a cell scraper. After washed with cooled PBS (1,200 rpm, 4° C., 5 minutes), suspended in 6 mL/dish of cooled 20 mM Tris-HCl (pH 7.4; manufactured by Nacalai Tesque Inc., 5 mM EDTA included) and homogenized using a Polytron, the homogenate was centrifuged (26,000 rpm, 20 minutes, 4° C.). The obtained precipitate was resuspended in cooled 20 mM Tris-HCl and homogenized again using a Polytron, and the homogenate was centrifuged (26,000 rpm, 20 minutes, 4° C.). The obtained precipitate was resuspended in 50 mM HEPES (pH 7.5; manufactured by Dojindo Laboratories) at 1 mL per dish, homogenized using a Polytron, and freeze-stored at −80° C. as a membrane fraction. At this time, a part thereof was used for the measurement of the protein concentration. Measurement of the protein concentration was carried out using a Protein assay stain (manufactured by Bio-Rad Laboratories) in accordance with a standard Protocol as appended in duplicate.
[^3H]PGE2 50 μL (final concentration 0.3 nM; manufactured by Perkin Elmer Co., Ltd.), 100 μL (20 μg/well) of the membrane fraction prepared from the rat EP4 expression cell, and 50 μL of a test compound were mixed in a 96-well microplate (manufactured by Sumitomo Bakelite Co., Ltd.), incubated at room temperature for 1 hour, then filtered by suction on a microplate (UniFilter-96 GF/B, manufactured by Perkin Elmer Co., Ltd.) using a cell harvester (FilterMate Harvester, manufactured by Perkin Elmer Co., Ltd.), and washed three times with 300 μL/well of a cooled assay buffer (50 mM HEPES, 10 mM MgCl2). Dilution of [^3H]PGE2 and the membrane fraction was carried out using the assay buffer, and dilution of the test compound and the unlabeled PGE2 was carried out using dimethyl sulfoxide and the assay buffer. The UniFilter-96 GF/B was treated by preliminarily washing twice with 200 μL/well of the cooled assay buffer. The UniFilter-96 GF/B after filtration was dried in a dryer overnight, 50 μL/well of a liquid scintillation cocktail (MicroScint20, manufactured by Perkin Elmer Co., Ltd.) was added thereto, and the radioactivity was then measured using a liquid scintillation counter for a microplate (TopCount, manufactured by Perkin Elmer Co., Ltd.). For measurement of the non-specific binding, an unlabeled PGE2 (final concentration 1 μM; manufactured by Cayman Chemical Company) was added. All of the measurements were carried out in duplicate, and the specific binding amount was determined by subtracting the non-specific binding amount from the total binding amount.
According to the test method as described above, the rat EP4 receptor affinity (Ki) of the compound of the formula (I) was measured. […] In this connection, Ex means Example Compound number.

[1] = test system: LPS-induced TNF-α production in THP-1 cells; assay: Inhibitory action on LPS-induced TNF-α production in THP-1 cells; type: cell-based; details: Homo sapiens, 3 hours after LPS, ELISA
Method: Human monocytic cell line THP-1 cells were suspended in an assay medium (PRMI-1640 containing 10% fetal bovine serum, 100 unit/mL penicillin G sodium, and 100 μg/mL streptomycin sulfate), and seeded onto a 96-well plate at 1×10^5 cells/well. 50 μL/well of an assay medium containing a test compound was added thereto, followed by incubation at 37° C. for 30 minutes. Further, 50 μL/well of an assay medium containing 1 to 5 μg/mL of LPS was added thereto, and the TNF-α concentration in the assay medium of each well after 3 hours was measured. The measurement was carried out by means of a standard ELISA method. A 96-well plate which had been coated overnight with an anti-human TNF monoclonal antibody (clone: MAb1) (manufactured by Becton, Dickinson and Company) as a capture antibody was washed with a wash buffer (PBS containing 0.05% Tween-20), and PBS containing 10% fetal bovine serum was incubated at room temperature for 1 hour to perform blocking. After washing with a wash buffer, 100 μL/well of the assay medium to be measured was incubated at 4° C. overnight. As the standard material to be measured, a recombinant human TNF (manufactured by Becton, Dickinson and Company) was used. After washing with a wash buffer, 100 μL of a biotinylated anti-human TNF monoclonal antibody (clone: MAb11) as a detection antibody was treated at room temperature for 1 hour. After washing with a wash buffer, it was treated with 100 μL/well of an HRP-labeled Streptavidin (manufactured by Zymed Laboratories, Inc.) at room temperature for 30 minutes, and washed again. Treatment was conducted using 100 μL/well of a TMB (3,3′,5,5′-tetramethylbenzidine) substrate liquid at room temperature for 20 minutes in a dark room. A 2 M sulfuric acid was added thereto at 50 μL/well to stop the reaction, and an absorbance at 450 nm/570 nm was measured by means of a plate reader SPECRA max (manufactured by Molecular Devices Inc.).

TNF-α production = assay: In vivo TNF-α production inhibiting action in rat (LPS-induced plasma TNF-α); set-up: species or system SD male rats; details: oral administration 1 hour before LPS (10 μg/kg i.v.), plasma TNF-α 90 minutes after LPS
Method: LPS (10 μg/kg) was administered to caudal veins of SD male rats, and after 90 minutes from the administration, the heparin blood was collected from the abdominal vena cava to prepare a plasma. The test compound was orally administered 1 hour before the administration of LPS. The amount of TNF-α in the plasma was measured using a BD OptEIA rat TNF ELISA set (manufactured by Becton, Dickinson and Company) according to the attached method. The inhibitory rate by the test compound was determined from the amount of TNF-α in plasma in a control group (administered with a solvent).

Sequence of rat EP4 receptor (P43114 whole entry): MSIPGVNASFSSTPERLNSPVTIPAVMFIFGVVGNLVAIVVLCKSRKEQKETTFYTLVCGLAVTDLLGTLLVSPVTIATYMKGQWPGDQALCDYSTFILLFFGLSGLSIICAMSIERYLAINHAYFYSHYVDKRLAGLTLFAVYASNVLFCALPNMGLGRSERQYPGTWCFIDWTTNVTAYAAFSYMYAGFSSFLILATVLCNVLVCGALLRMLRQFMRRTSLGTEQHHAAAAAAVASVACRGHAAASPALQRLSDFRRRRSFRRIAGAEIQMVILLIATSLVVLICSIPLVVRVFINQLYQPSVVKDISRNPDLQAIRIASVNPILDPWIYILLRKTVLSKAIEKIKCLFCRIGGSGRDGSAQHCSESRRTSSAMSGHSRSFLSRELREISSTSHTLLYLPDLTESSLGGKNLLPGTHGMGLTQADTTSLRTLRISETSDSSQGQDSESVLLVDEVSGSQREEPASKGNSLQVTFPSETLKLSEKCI

Structure (SMILES) | Ki (rat EP4 receptor) [nM] | IC50 [1] [nM] | ED50 (TNF-α production) [mg/kg]
COc1cccc(N(C)Cc2c(Cl)cc(Cl)c(=O)n2CCc2ccc(C(=O)O)cc2)c1 [Example 124] | 6.2 | – | –
COc1cc(OC)cc(N(C)Cc2c(Cl)cc(Cl)c(=O)n2CCc2ccc(C(=O)O)cc2)c1 [Example 125] | 29 | – | –
Cc1cccc(N(C)Cc2c(Cl)cc(Cl)c(=O)n2CCc2ccc(C(=O)O)cc2)c1 [Example 6, 4-{2-[3,5-dichloro-6-{[methyl(3-methylphenyl)amino]methyl}-2-oxopyridin-1(2H)-yl]ethyl}benzoic acid] | 11 | – | –
O=C(O)c1ccc(CCn2c(CNc3cccc(C(F)(F)F)c3)c(Cl)cc(Cl)c2=O)cc1 [Example 99] | 25 | – | –
CN(Cc1c(Cl)cc(Cl)c(=O)n1CCc1ccc(C(=O)O)cc1)c1cccc(OC(F)(F)F)c1 [Ex 19] | 5.4 | – | –
O=C(O)c1ccc(CCn2c(CN3CCc4ccc(C(F)(F)F)cc43)c(Cl)cc(Cl)c2=O)cc1 [Example 153] | 4.9 | – | –
COc1ccc2c(c1)N(Cc1c(Cl)cc(Cl)c(=O)n1CCc1ccc(C(=O)O)cc1)CC2 [Example 130] | 4.1 | – | –
CN(Cc1c(Cl)cc(Cl)c(=O)n1CCc1ccc(C(=O)O)cc1)c1cccc(F)c1 [Example 122] | 16 | – | –
CCc1cccc2c1N(Cc1c(Cl)cc(Cl)c(=O)n1CCc1ccc(C(=O)O)cc1)CC2 [Example 13] | 24 | 7.4 | –
CCc1cccc(NCc2c(Cl)cc(Cl)c(=O)n2CCc2ccc(C(=O)O)cc2)c1 [Example 97] | 11 | – | –
CC(C)c1cccc(NCc2c(Cl)cc(Cl)c(=O)n2CCc2ccc(C(=O)O)cc2)c1 [Example 91] | 9.8 | – | –
O=C(O)c1ccc(CCn2c(CN3CCc4ccc(Cl)cc43)c(Cl)cc(Cl)c2=O)cc1 [Example 150] | 15 | – | –
COc1cccc2c1N(Cc1c(Cl)cc(Cl)c(=O)n1CCc1ccc(C(=O)O)cc1)CC2 [Example 146] | 39 | – | –
O=C(O)c1ccc(CCn2c(CN3CCc4ccccc43)c(Cl)cc(Cl)c2=O)cc1 [Example 16, 4-{2-[3,5-dichloro-6-(2,3-dihydro-1H-indol-1-ylmethyl)-2-oxopyridin-1(2H)-yl]ethyl}benzoic acid] | 13 | – | –
O=C(O)c1ccc(CCn2c(CN3CCc4ccc(OC(F)(F)F)cc43)c(Cl)cc(Cl)c2=O)cc1 [Example 152] | 5.1 | – | –

More lines, main results first:

Ki (rat EP4 receptor) [nM] | IC50 [1] [nM] | Structure (SMILES) | ED50 (TNF-α production) [mg/kg]
21 | – | CCN(Cc1c(Cl)cc(Cl)c(=O)n1CCc1ccc(C(=O)O)cc1)c1cccc(C(C)C)c1 [Example 123] | –
7.7 | – | Cc1ccc2c(c1)N(Cc1c(Cl)cc(Cl)c(=O)n1CCc1ccc(C(=O)O)cc1)CC2 [Example 138] | –
8.6 | – | CCCC[C@H]1CCCN1Cc1c(Cl)cc(Cl)c(=O)n1CCc1ccc(C(=O)O)cc1 [Example 158] | –
9.5 | 2.8 | Cc1c(F)ccc2c1N(Cc1c(Cl)cc(Cl)c(=O)n1CCc1ccc(C(=O)O)cc1)CC2 [Example 149] | –
12 | – | Cc1cccc2c1N(Cc1c(Cl)cc(Cl)c(=O)n1CCc1ccc(C(=O)O)cc1)CC2 [Example 139] | –
2.2 | 13 | Cc1cc(C)c(=O)n(CCc2ccc(-c3n[nH]c(=O)o3)cc2)c1CN1CCC[C@@H]1CC(C)C [Example 345] | 1.9
25 | 12 | Cc1cc(C2CC2)c(CN2CCC[C@@H]2CC(C)C)n(CCc2ccc(C(=O)O)cc2)c1=O [Ex 27] | –
0.52 | 15 | CCC[C@H]1CCCN1Cc1c(Cl)cc(Cl)c(=O)n1CCc1ccc(-c2nnn[nH]2)cc1 [Ex 42] | 0.076
– | 12 | CN(Cc1c(Cl)cc(Cl)c(=O)n1CCc1ccc(C(=O)O)cc1)C1CCCC1 [Ex 26] | –
4.4 | – | CC(C)C[C@H]1CCCN1Cc1c(Cl)cc(Cl)c(=O)n1CCc1ccc(C(=O)O)cc1 [Ex 18] | –
3.6 | – | CCc1ccc2c(c1)N(Cc1c(Cl)cc(Cl)c(=O)n1CCc1ccc(C(=O)O)cc1)CC2 [Example 15, 4-(2-{3,5-dichloro-6-[(6-ethyl-2,3-dihydro-1H-indol-1-yl)methyl]-2-oxopyridin-1(2H)-yl}ethyl)benzoic acid] | –
19 | – | Cc1ccc2c(c1)CCCN2Cc1c(Cl)cc(Cl)c(=O)n1CCc1ccc(C(=O)O)cc1 [Example 145] | –
4.7 | – | CC(C)c1cccc(N(C)Cc2c(Cl)cc(Cl)c(=O)n2CCc2ccc(C(=O)O)cc2)c1 [Example 5, 4-{2-[3,5-dichloro-6-{[(3-isopropylphenyl)(methyl)amino]methyl}-2-oxopyridin-1(2H)-yl]ethyl}benzoic acid] | –
2.8 | – | Cc1cc(C2CC2)c(CN2CCC[C@@H]2CC(C)C)n(CCc2ccc(-c3n[nH]c(=O)o3)cc2)c1=O [Example 346] | 2
11 | – | CC(C)c1ccc2c(c1)N(Cc1c(Cl)cc(Cl)c(=O)n1CCc1ccc(C(=O)O)cc1)CC2 [Example 143] | –

— US20110082133A1, “PYRIDONE COMPOUNDS” (priority 2008, published 2011)
